The values that follow come from patent US7846959B2, “Raf modulators and methods of use” (Exelixis, Inc., priority 2004, dated 2010).

One test concerns the target c-Raf (Homo sapiens, UniProt P04049). Description: Luciferase-coupled chemiluminescence kinase assay (ATP consumption), c-Raf. The class given is biochemical. The settings on record: read-out: cRaf-1 (inhibition indicated as IC50). The gist of the method: (§1)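 Read-out: percent ATP consumed, quantified by luciferase/luciferin chemiluminescence after the kinase step. ATP consumption was held at 25-60%. Kinase ([…]) plus compound were preincubated 30 min at RT in Tris pH 7.5 buffer with MgCl2, Triton and DTT, then reacted with ATP for 3 h.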

The next test addresses B-Raf (Homo sapiens, UniProt P15056). Description: Luciferase-coupled chemiluminescence kinase assay (ATP consumption), B-Raf. It is filed as biochemical. Conditions: read-out: bRaf (inhibition indicated as IC50). The gist of the method: as §1

Chain of c-Raf (P04049 whole entry): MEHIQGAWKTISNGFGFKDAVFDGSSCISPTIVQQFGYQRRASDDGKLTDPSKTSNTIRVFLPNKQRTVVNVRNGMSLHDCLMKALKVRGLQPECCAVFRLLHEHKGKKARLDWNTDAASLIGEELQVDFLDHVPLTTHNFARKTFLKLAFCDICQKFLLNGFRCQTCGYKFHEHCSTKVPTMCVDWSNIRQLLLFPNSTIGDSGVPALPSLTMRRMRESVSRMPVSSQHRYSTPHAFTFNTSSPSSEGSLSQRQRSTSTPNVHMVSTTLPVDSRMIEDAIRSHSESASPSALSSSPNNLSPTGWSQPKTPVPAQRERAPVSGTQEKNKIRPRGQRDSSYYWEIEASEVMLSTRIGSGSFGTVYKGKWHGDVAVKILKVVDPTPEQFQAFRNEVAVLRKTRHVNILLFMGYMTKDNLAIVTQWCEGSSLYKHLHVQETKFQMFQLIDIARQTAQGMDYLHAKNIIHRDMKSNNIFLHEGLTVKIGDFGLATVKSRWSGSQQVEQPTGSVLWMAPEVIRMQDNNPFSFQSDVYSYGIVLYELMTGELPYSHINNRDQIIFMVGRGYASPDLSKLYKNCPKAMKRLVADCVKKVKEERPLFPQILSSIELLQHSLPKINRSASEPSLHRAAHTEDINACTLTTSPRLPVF
Chain of B-Raf (P15056 whole entry): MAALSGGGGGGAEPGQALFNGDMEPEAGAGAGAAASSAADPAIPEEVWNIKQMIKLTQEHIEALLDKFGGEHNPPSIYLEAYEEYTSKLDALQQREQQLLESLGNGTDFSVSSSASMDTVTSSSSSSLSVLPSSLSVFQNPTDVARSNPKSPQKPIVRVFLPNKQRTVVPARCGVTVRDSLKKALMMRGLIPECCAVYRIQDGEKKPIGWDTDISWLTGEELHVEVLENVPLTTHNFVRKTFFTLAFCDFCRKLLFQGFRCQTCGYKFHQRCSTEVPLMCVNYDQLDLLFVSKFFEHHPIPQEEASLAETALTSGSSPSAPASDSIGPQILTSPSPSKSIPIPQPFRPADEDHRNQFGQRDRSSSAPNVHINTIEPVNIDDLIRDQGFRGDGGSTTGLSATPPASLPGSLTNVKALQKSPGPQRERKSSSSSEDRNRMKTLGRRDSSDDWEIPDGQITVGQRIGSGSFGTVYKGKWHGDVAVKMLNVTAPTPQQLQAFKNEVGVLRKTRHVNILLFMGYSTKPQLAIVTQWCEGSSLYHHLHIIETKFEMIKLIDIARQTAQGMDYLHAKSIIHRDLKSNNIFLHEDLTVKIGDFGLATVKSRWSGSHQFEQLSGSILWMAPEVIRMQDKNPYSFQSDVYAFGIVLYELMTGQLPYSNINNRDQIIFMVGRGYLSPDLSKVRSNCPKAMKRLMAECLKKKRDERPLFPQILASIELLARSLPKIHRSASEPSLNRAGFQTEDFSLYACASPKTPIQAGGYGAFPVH

For `C=Cc1cccc(N2C(=O)c3ccccc3C2(O)c2ccc3[nH]c(NC(=O)OC)nc3c2)c1F` (stereo not drawn) [Entry 366, methyl {5-[2-(3-ethenyl-2-fluorophenyl)-1-hydroxy-3-oxo-2,3-dihydro-1H-isoindol-1-yl]-1H-benzimidazol-2-yl}carbamate], the IC50 at c-Raf and at B-Raf was < 100 nM throughout.
Consider `COC(=O)Nc1nc2ccc(C3(O)c4ccccc4C(=O)N3c3cccc(OC)c3F)cc2[nH]1` (stereo not drawn) [Entry 367, methyl (6-{2-[2-fluoro-3-(methyloxy)phenyl]-1-hydroxy-3-oxo-2,3-dihydro-1H-isoindol-1-yl}-1H-benzimidazol-2-yl)carbamate], for which the IC50 at c-Raf was 100 to 1000 nM; on B-Raf, < 100 nM.
The corresponding values for `COC(=O)Nc1nc2cc(C3(O)c4ccccc4C(=O)N3c3cc(OC)ccc3C)ccc2[nH]1` (stereo not drawn) [Entry 368, methyl (5-{1-hydroxy-2-[2-methyl-5-(methyloxy)phenyl]-3-oxo-2,3-dihydro-1H-isoindol-1-yl}-1H-benzimidazol-2-yl)carbamate] are < 100 nM and < 100 nM.
On to `C#Cc1cccc(N2C(=O)c3cccc(F)c3C2(O)c2ccc3[nH]c(NC(=O)OC)nc3c2)c1F` (stereo not drawn) [Entry 369, methyl {5-[2-(3-ethynyl-2-fluorophenyl)-7-fluoro-1-hydroxy-3-oxo-2,3-dihydro-1H-isoindol-1-yl]-1H-benzimidazol-2-yl}carbamate], for which the IC50 on c-Raf and at B-Raf was < 100 nM each time.
As to `CC#Cc1cccc(N2C(=O)c3ccccc3C2(O)c2ccc3[nH]c(NC(=O)OC)nc3c2)c1F` (stereo not drawn) [Entry 370, methyl {5-[2-(2-fluoro-3-prop-1-yn-1-ylphenyl)-1-hydroxy-3-oxo-2,3-dihydro-1H-isoindol-1-yl]-1H-benzimidazol-2-yl}carbamate], the IC50 on c-Raf and on B-Raf was 100 to 1000 nM each time.
Consider `COC(=O)Nc1nc2cc(C3(O)c4c(F)cccc4C(=O)N3c3cc(Cl)ccc3C)ccc2[nH]1` (stereo not drawn) [Entry 371, methyl {5-[2-(5-chloro-2-methylphenyl)-7-fluoro-1-hydroxy-3-oxo-2,3-dihydro-1H-isoindol-1-yl]-1H-benzimidazol-2-yl}carbamate], for which the IC50 at c-Raf and on B-Raf was < 100 nM in each case.
`C#Cc1cccc(N2C(=O)c3ccccc3C2(O)c2ccc3[nH]c(NC(=O)OC)nc3c2)c1C` (stereo not drawn) [Entry 372, methyl {5-[2-(3-ethynyl-2-methylphenyl)-1-hydroxy-3-oxo-2,3-dihydro-1H-isoindol-1-yl]-1H-benzimidazol-2-yl}carbamate]: the IC50 at c-Raf and on B-Raf was < 100 nM in each case.
As to `COc1cccc(N2C(=O)c3ccccc3C2(O)c2ccc3nc(Nc4ncccn4)[nH]c3c2)c1` (stereo not drawn) [Entry 373, 3-hydroxy-2-[3-(methyloxy)phenyl]-3-[2-(pyrimidin-2-ylamino)-1H-benzimidazol-6-yl]-2,3-dihydro-1H-isoindol-1-one], the IC50 at c-Raf and on B-Raf was < 100 nM throughout.
Take `Cc1cccc(N2C(=O)c3ccccc3C2(O)c2ccc3nc(Nc4ncccn4)[nH]c3c2)c1` (stereo not drawn) [Entry 374, 3-hydroxy-2-(3-methylphenyl)-3-[2-(pyrimidin-2-ylamino)-1H-benzimidazol-6-yl]-2,3-dihydro-1H-isoindol-1-one]: the IC50 on c-Raf and on B-Raf was < 100 nM in each case.
Take `Cc1ccc(Cl)cc1N1C(=O)c2ccccc2C1(O)c1ccc2nc(Nc3ncccn3)[nH]c2c1` (stereo not drawn) [Entry 375, 2-(5-chloro-2-methylphenyl)-3-hydroxy-3-[2-(pyrimidin-2-ylamino)-1H-benzimidazol-6-yl]-2,3-dihydro-1H-isoindol-1-one]: the IC50 at c-Raf and at B-Raf was < 100 nM each time.
Turning to `COC(=O)Nc1nc2ccc(C3(O)c4c(F)ccc(F)c4C(=O)N3c3cc(Cl)ccc3C)cc2[nH]1` (stereo not drawn) [Entry 376, methyl {6-[2-(5-chloro-2-methylphenyl)-4,7-difluoro-1-hydroxy-3-oxo-2,3-dihydro-1H-isoindol-1-yl]-1H-benzimidazol-2-yl}carbamate], the IC50 at c-Raf and on B-Raf was < 100 nM throughout.
Regarding `C#Cc1cccc(N2C(=O)c3ccccc3C2c2ccc3[nH]c(NC(=O)OC)nc3c2)c1F` (stereo not drawn) [Entry 377, methyl {5-[2-(3-ethynyl-2-fluorophenyl)-3-oxo-2,3-dihydro-1H-isoindol-1-yl]-1H-benzimidazol-2-yl}carbamate], the IC50 on c-Raf and on B-Raf was < 100 nM each time.
With `O=C1c2ccccc2C(O)(c2ccc3[nH]c(Nc4ccc(Cl)nn4)nc3c2)N1c1cccc(Cl)c1F` (stereo not drawn) [Entry 378, 2-(3-chloro-2-fluorophenyl)-3-{2-[(6-chloropyridazin-3-yl)amino]-1H-benzimidazol-5-yl}-3-hydroxy-2,3-dihydro-1H-isoindol-1-one], the IC50 on c-Raf and at B-Raf was 100 to 1000 nM each time.
Regarding `O=C1c2c(F)ccc(F)c2C(O)(c2ccc3[nH]c(Nc4ncccn4)nc3c2)N1c1cccc(Cl)c1F` (stereo not drawn) [Entry 379, 2-(3-chloro-2-fluorophenyl)-4,7-difluoro-3-hydroxy-3-[2-(pyrimidin-2-ylamino)-1H-benzimidazol-5-yl]-2,3-dihydro-1H-isoindol-1-one], the IC50 on c-Raf and on B-Raf was < 100 nM in each case.
For `COC(=O)Nc1nc2cc(C3(O)c4ccccc4C(=O)N3c3cc(C)ccc3F)ccc2[nH]1` (stereo not drawn) [Entry 380, methyl {5-[2-(2-fluoro-5-methylphenyl)-1-hydroxy-3-oxo-2,3-dihydro-1H-isoindol-1-yl]-1H-benzimidazol-2-yl}carbamate], the IC50 at c-Raf and on B-Raf was < 100 nM each time.
For `COC(=O)Nc1nc2cc(C3(O)c4ccccc4C(=O)N3c3cc(OC)ccc3F)ccc2[nH]1` (stereo not drawn) [Entry 381, methyl (5-{2-[2-fluoro-5-(methyloxy)phenyl]-1-hydroxy-3-oxo-2,3-dihydro-1H-isoindol-1-yl}-1H-benzimidazol-2-yl)carbamate], the IC50 on c-Raf and at B-Raf was < 100 nM each time.
Take `COC(=O)Nc1nc2cc(C3(O)c4ccccc4C(=O)N3c3cc(C)ccc3OC)ccc2[nH]1` (stereo not drawn) [Entry 382, methyl (5-{1-hydroxy-2-[5-methyl-2-(methyloxy)phenyl]-3-oxo-2,3-dihydro-1H-isoindol-1-yl}-1H-benzimidazol-2-yl)carbamate]: the IC50 on c-Raf and at B-Raf was < 100 nM each time.
Turning to `C#Cc1cc(C)cc(N2C(=O)c3ccccc3C2(O)c2ccc3[nH]c(NC(=O)OC)nc3c2)c1` (stereo not drawn) [Entry 383, methyl {5-[2-(3-ethynyl-5-methylphenyl)-1-hydroxy-3-oxo-2,3-dihydro-1H-isoindol-1-yl]-1H-benzimidazol-2-yl}carbamate], the IC50 on c-Raf and on B-Raf was < 100 nM in each case.
With `O=C1c2ccccc2C(O)(c2ccc3[nH]c(Nc4ncc(Cl)cn4)nc3c2)N1c1cccc(Cl)c1F` (stereo not drawn) [Entry 384, 2-(3-chloro-2-fluorophenyl)-3-{2-[(5-chloropyrimidin-2-yl)amino]-1H-benzimidazol-5-yl}-3-hydroxy-2,3-dihydro-1H-isoindol-1-one], the IC50 on c-Raf and on B-Raf was < 100 nM each time.
Take `Cc1ccnc(Nc2nc3cc(C4(O)c5ccccc5C(=O)N4c4cccc(Cl)c4F)ccc3[nH]2)n1` (stereo not drawn) [Entry 385, 2-(3-chloro-2-fluorophenyl)-3-hydroxy-3-{2-[(4-methylpyrimidin-2-yl)amino]-1H-benzimidazol-5-yl}-2,3-dihydro-1H-isoindol-1-one]: the IC50 on c-Raf and on B-Raf was < 100 nM in each case.
As to `COc1cc(OC)nc(Nc2nc3cc(C4(O)c5ccccc5C(=O)N4c4cccc(Cl)c4F)ccc3[nH]2)n1` (stereo not drawn) [Entry 386, 3-(2-{[4,6-bis(methyloxy)pyrimidin-2-yl]amino}-1H-benzimidazol-5-yl)-2-(3-chloro-2-fluorophenyl)-3-hydroxy-2,3-dihydro-1H-isoindol-1-one], the IC50 on c-Raf and at B-Raf was < 100 nM throughout.
With `COc1cc(C)nc(Nc2nc3cc(C4(O)c5ccccc5C(=O)N4c4cccc(Cl)c4F)ccc3[nH]2)n1` (stereo not drawn) [Entry 387, 2-(3-chloro-2-fluorophenyl)-3-hydroxy-3-(2-{[4-methyl-6-(methyloxy)pyrimidin-2-yl]amino}-1H-benzimidazol-5-yl)-2,3-dihydro-1H-isoindol-1-one], the IC50 on c-Raf and at B-Raf was < 100 nM each time.
Regarding `Cc1cccc(N2C(=O)c3ccccc3C2(O)c2ccc3nc(Nc4cnccn4)[nH]c3c2)c1` (stereo not drawn) [Entry 388, 3-hydroxy-2-(3-methylphenyl)-3-[2-(pyrazin-2-ylamino)-1H-benzimidazol-6-yl]-2,3-dihydro-1H-isoindol-1-one], the IC50 on c-Raf and on B-Raf was < 100 nM in each case.
As for `Cc1ccc(Cl)cc1N1C(=O)c2ccccc2C1(O)c1ccc2nc(Nc3cnccn3)[nH]c2c1` (stereo not drawn) [Entry 389, 2-(5-chloro-2-methylphenyl)-3-hydroxy-3-[2-(pyrazin-2-ylamino)-1H-benzimidazol-6-yl]-2,3-dihydro-1H-isoindol-1-one], the IC50 at c-Raf and at B-Raf was < 100 nM in each case.
As for `COC(=O)Nc1nc2ccc(C3(O)c4ccccc4C(=O)N3c3cccc(C)c3F)cc2[nH]1` (stereo not drawn) [Entry 390, methyl {6-[2-(2-fluoro-3-methylphenyl)-1-hydroxy-3-oxo-2,3-dihydro-1H-isoindol-1-yl]-1H-benzimidazol-2-yl}carbamate], the IC50 on c-Raf and on B-Raf was < 100 nM in each case.
Regarding `COc1cccc(N2C(=O)c3ccccc3C2(O)c2ccc3[nH]c(Nc4cnccn4)nc3c2)c1` (stereo not drawn) [Entry 391, 3-hydroxy-2-[3-(methyloxy)phenyl]-3-[2-(pyrazin-2-ylamino)-1H-benzimidazol-5-yl]-2,3-dihydro-1H-isoindol-1-one], the IC50 at c-Raf and at B-Raf was < 100 nM each time.
With `COC(=O)Nc1nc2ccc(C(=O)c3ccccc3C(=O)NCc3cccs3)cc2[nH]1` [Entry 392, methyl {6-[(2-{[(2-thienylmethyl)amino]carbonyl}phenyl)carbonyl]-1H-benzimidazol-2-yl}carbamate], the IC50 at c-Raf and at B-Raf was < 100 nM throughout.
